Measurements as given in patent publication US12215132B2, “Methods, compositions and uses thereof for reversing sarcopenia” (The Trustees of Columbia University in the City of New York, priority 2020, dated 2025).
“Also recorded” adds a separate entry of the source. Where two headings read alike, the source gives them in different places.

What was measured:
[1] = test system: dexamethasone-treated mice
Procedure: It was also further examined whether an osteocalcin treatment might preserve muscle function and/or muscle mass in a clinically relevant mouse model of sarcopenia.
In another recognized model of sarcopenia, the efficacy of osteocalcin has been tested. Specifically, dexamethasone delivered by pumps ([…]) for 28 days has been used in mice. Another group of mice received Dexamethasone plus osteocalcin also delivered by pumps.
FIG. 9A and FIG. 9B show exemplary graphs pf exemplary modeling sarcopenia in mice.

Liver Factor 1 = Liver Factor 1 production during exercise; format: in vivo
Description: OCN signaling in the liver is required for exercise capacity (see FIG. 6). OCN enhances Liver Factor 1 production during exercise (see FIG. 7). Liver Factor 1 mediates OCN regulation of exercise capacity (see FIG. 8).

animal models = conditions: in vivo
[2] = test system: young and 12 to 15 month-old mice; conditions: data of WO 2016/081728, cited from earlier work
[3] = one-month chronic infusion of dexamethasone, mice
[4] = dexamethasone-treated mice, co-treatment with test substance

## C[C@@H]1C[C@H]2[C@@H]3CCC4=CC(=O)C=C[C@]4(C)[C@@]3(F)[C@@H](O)C[C@]2(C)[C@@]1(O)C(=O)CO [dexamethasone, reference compound]
[1]; mouse, in vivo
  ability to run on a treadmill: decreased
  muscle mass: decreased
[1]; [3]
  decrease of gastrocnemius muscle mass: 30%
  reduction of running capacity: 50%

## N#Cc1ccc(N2CCC[C@@H]2[C@@H](O)C(F)(F)F)cc1C(F)(F)F [VK5211, reference compound]
[1]; [4]
  muscle mass: fully restored muscle mass to normal levels
  running capacity / exercise capacity: modest effect

## osteocalcin: Osteocalcin, a bone-derived hormone; small (46-50 amino acid residues) bone specific protein (YLYQWLGAPVPYPDPLEPRREVCELNPDCDELADHIGFQEAYRR; listed as Homo sapiens)
Liver Factor 1
  Liver Factor 1 production: enhances
Animal models
  negative side-effects: safe with no recorded negative side-effects
[2]; 12 to 15 month-old mice
  exercise capacity: confers to 15 months-old mice exercise capacity of 3 month-old mice; also recorded: confers to 12 to 15 month-old mice the exercise capacity of 3 month-old mice
[2]; young mice
  exercise capacity: increases the exercise capacity
[1]; Dex-induced sarcopenia
  IL-6: favors IL-6
  muscle function versus muscle mass; comparison with VK5211: outperforms
[1]; Dex-induced sarcopenia, listed as OCN
  muscle function versus muscle mass; comparison with VK5211: mainly targets muscle function
[1]; dexamethasone-treated mice, co-treatment with test substance, listed as OCN
  muscle mass: marginal effect
[1]; mouse, in vivo
  off-target effects: no overt off-target effects
[1]; osteocalcin given to mice that had already received dexamethasone for two weeks
  deleterious effect of dexamethasone on muscle function: partially revert
